Data from patent publication US20240349726A1, “SUBSTITUTED 1,2,4-THIADIAZOLYL NICOTINAMIDES, SALTS OR N-OXIDES THEREOF AND THEIR USE AS HERBICIDALLY ACTIVE SUBSTANCES” (Bayer Aktiengesellschaft, priority 2021, published 2024).

Assays:
Assay type in all cases: in vivo
Matricaria inodora [1] = experiment: Herbicidal pre-emergence action, MATIN; conditions: visual grading after ca. 3 weeks vs untreated controls
Excerpt: (§1) Seeds of mono- and dicotyledonous weed plants were sown in plastic pots (double sowings with one species of mono- and one species of dicotyledonous weed plants per pot), in sandy loam, and covered with soil. The compounds according to the invention, formulated in the form of wettable powders (WP) or as emulsifiable concentrates (EC), were applied to the surface of the covering soil as an aqueous suspension or as an emulsion, with the addition of 0.5% of an additive, at an application rate of 600 litres of water per hectare (converted). Following treatment, the pots were placed in a greenhouse and kept under optimum growth conditions for the test plants. The visual grading of the damage to the test plants is carried out after ca. 3 weeks in comparison to untreated controls (herbicidal effect in percent (%): 100% effect=plants have died, 0% effect=as control plants). Seeds of mono- and dicotyledonous weed plants were sown in plastic pots (double sowings with one species of mono- and one species of dicotyledonous weed plants per pot), in sandy loam, and covered with soil. The compounds according to the invention, formulated in the form of wettable powders (WP) or as emulsifiable concentrates (EC), were applied to the surface of the covering soil as an aqueous suspension or as an emulsion, with the addition of 0.5% of an additive, at an application rate of 600 litres of water per hectare (converted). Following treatment, the pots were placed in a greenhouse and kept under optimum growth conditions for the test plants. The visual grading of the damage to the test plants is carried out after ca. 3 weeks in comparison to untreated controls (herbicidal effect in percent (%): 100% effect=plants have died, 0% effect=as control plants).

Stellaria media [2] = experiment: Herbicidal pre-emergence action, STEME; conditions: visual grading after ca. 3 weeks vs untreated controls
Excerpt: as §1

Amaranthus retroflexus [3] = experiment: Herbicidal pre-emergence action, AMARE; conditions: 1280 g/ha, visual grading after ca. 3 weeks vs untreated controls
Excerpt: as §1

Matricaria inodora [4] = experiment: Herbicidal post-emergence action, MATIN; conditions: assessed visually after ca. 3 weeks vs untreated controls
Excerpt: (§2) Seeds of mono- and dicotyledonous weed plants were sown in plastic pots (double sowings with one species of mono- and one species of dicotyledonous weed plants per pot), in sandy loam, covered with soil and grown under controlled growth conditions. 2 to 3 weeks after sowing, the test plants were sprayed in the single-leaf stage. The compounds according to the invention, formulated in the form of wettable powders (WP) or as emulsifiable concentrates (EC), were sprayed onto the green plant parts as an aqueous suspension or as an emulsion, with the addition of 0.5% of an additive, at an application rate of 600 litres of water per hectare (converted). The test plants were placed in the greenhouse for ca. 3 weeks under optimum growth conditions, and then the effect of the preparations is assessed visually in comparison with untreated controls (herbicidal effect in percent (%): 100% effect=plants have died, 0% effect=as control plants). […]

Stellaria media [5] = experiment: Herbicidal post-emergence action, STEME; conditions: assessed visually after ca. 3 weeks vs untreated controls
Excerpt: as §2

Veronica persica [6] = experiment: Herbicidal post-emergence action, VERPE; conditions: assessed visually after ca. 3 weeks vs untreated controls
Excerpt: as §2

Amaranthus retroflexus [7] = experiment: Herbicidal post-emergence action, AMARE; conditions: assessed visually after ca. 3 weeks vs untreated controls
Excerpt: as §2

Lolium rigidum [8] = experiment: Herbicidal pre-emergence action, LOLRI; conditions: visual grading after ca. 3 weeks vs untreated controls
Excerpt: as §1

Veronica persica [9] = experiment: Herbicidal pre-emergence action, VERPE; conditions: 1280 g/ha, visual grading after ca. 3 weeks vs untreated controls
Excerpt: as §1

Poa annua [10] = experiment: Herbicidal pre-emergence action, POAAN; conditions: visual grading after ca. 3 weeks vs untreated controls
Excerpt: as §1

Abutilon theophrasti = experiment: Herbicidal post-emergence action, ABUTH; conditions: assessed visually after ca. 3 weeks vs untreated controls
Excerpt: as §2

Kochia scoparia = experiment: Herbicidal post-emergence action, KCHSC; conditions: assessed visually after ca. 3 weeks vs untreated controls
Excerpt: as §2

Lolium rigidum [11] = experiment: Herbicidal post-emergence action, LOLRI; conditions: 1280 g/ha, assessed visually after ca. 3 weeks vs untreated controls
Excerpt: as §2

Poa annua [12] = experiment: Herbicidal post-emergence action, POAAN; conditions: 1280 g/ha, assessed visually after ca. 3 weeks vs untreated controls
Excerpt: as §2

For `Cc1cc(Cl)nc(Cl)c1C(=O)Nc1ncns1` [Example I-020, 2,6-dichloro-4-methyl-N-(1,2,4-thiadiazol-5-yl)pyridine-3-carboxamide], the “herbicidal effect MATIN” value (Matricaria inodora [1]; 1280 g/ha) was 90%, the “herbicidal effect STEME” value (Stellaria media [2]; 320 g/ha) was 90% and the “herbicidal effect STEME” value (Stellaria media [2]; 1280 g/ha) was 100%. The “herbicidal effect AMARE” value (Amaranthus retroflexus [3]) was 90%, the “herbicidal effect MATIN” value (Matricaria inodora [4]; 1280 g/ha) was 90% and the “herbicidal effect STEME” value (Stellaria media [5]; 1280 g/ha) was 90%. For the same compound, the “herbicidal effect VERPE” value (Veronica persica [6]; 1280 g/ha) was 100% and the “herbicidal effect AMARE” value (Amaranthus retroflexus [7]; 1280 g/ha) was 90%.

For `O=C(Nc1ncns1)c1c(C(F)(F)F)ccnc1Cl` [Example I-021], the “herbicidal effect LOLRI” value (Lolium rigidum [8]; 320 g/ha) was 90%, the “herbicidal effect LOLRI” value (Lolium rigidum [8]; 1280 g/ha) was 100% and the “herbicidal effect MATIN” value (Matricaria inodora [1]; 320 g/ha) was 90%. For the same compound, the “herbicidal effect MATIN” value (Matricaria inodora [1]; 1280 g/ha) was 100%, the “herbicidal effect STEME” value (Stellaria media [2]; 320 g/ha) was 90% and the “herbicidal effect STEME” value (Stellaria media [2]; 1280 g/ha) was 100%. For the same compound, the “herbicidal effect VERPE” value (Veronica persica [9]) was 90%, the “herbicidal effect POAAN” value (Poa annua [10]; 320 g/ha) was 90% and the “herbicidal effect POAAN” value (Poa annua [10]; 1280 g/ha) was 100%. For the same compound, the “herbicidal effect AMARE” value (Amaranthus retroflexus [3]) was 100%, the “herbicidal effect ABUTH” value (Abutilon theophrasti; 320 g/ha) was 90% and the “herbicidal effect ABUTH” value (Abutilon theophrasti; 1280 g/ha) was 100%. The “herbicidal effect KCHSC” value (Kochia scoparia; 320 g/ha) was 90%, the “herbicidal effect KCHSC” value (Kochia scoparia; 1280 g/ha) was 100% and the “herbicidal effect LOLRI” value (Lolium rigidum [11]) was 90%. For the same compound, the “herbicidal effect MATIN” value (Matricaria inodora [4]; 320 g/ha) was 100%, the “herbicidal effect MATIN” value (Matricaria inodora [4]; 1280 g/ha) was 100% and the “herbicidal effect STEME” value (Stellaria media [5]; 320 g/ha) was 90%. For the same compound, the “herbicidal effect STEME” value (Stellaria media [5]; 1280 g/ha) was 100%, the “herbicidal effect VERPE” value (Veronica persica [6]; 320 g/ha) was 100% and the “herbicidal effect VERPE” value (Veronica persica [6]; 1280 g/ha) was 100%. The “herbicidal effect POAAN” value (Poa annua [12]) was 100%, the “herbicidal effect AMARE” value (Amaranthus retroflexus [7]; 320 g/ha) was 100% and the “herbicidal effect AMARE” value (Amaranthus retroflexus [7]; 1280 g/ha) was 100%.

In the case of `Cc1ccnc(Br)c1C(=O)Nc1ncns1` [Example I-022, 2-bromo-4-methyl-N-(1,2,4-thiadiazol-5-yl)pyridine-3-carboxamide], the “herbicidal effect STEME” value (Stellaria media [2]; 1280 g/ha) is reported as 100%, the “herbicidal effect STEME” value (Stellaria media [5]; 1280 g/ha) is reported as 90% and the “herbicidal effect AMARE” value (Amaranthus retroflexus [7]; 1280 g/ha) is reported as 90%.

For `Cc1cc(F)ncc1C(=O)Nc1ncns1` [Example I-023], the “herbicidal effect MATIN” value (Matricaria inodora [1]; 1280 g/ha) was 100%, the “herbicidal effect STEME” value (Stellaria media [2]; 1280 g/ha) was 90% and the “herbicidal effect POAAN” value (Poa annua [10]; 1280 g/ha) was 100%. The “herbicidal effect AMARE” value (Amaranthus retroflexus [3]) was 90% and the “herbicidal effect AMARE” value (Amaranthus retroflexus [7]; 1280 g/ha) was 90%.

With `O=C(Nc1ncns1)c1cnc(Cl)cc1C(F)(F)F` [Example I-024] the “herbicidal effect MATIN” value (Matricaria inodora [1]; 1280 g/ha) was 90%, the “herbicidal effect MATIN” value (Matricaria inodora [4]; 320 g/ha) was 90% and the “herbicidal effect MATIN” value (Matricaria inodora [4]; 1280 g/ha) was 100%. The “herbicidal effect VERPE” value (Veronica persica [6]; 1280 g/ha) was 90% and the “herbicidal effect AMARE” value (Amaranthus retroflexus [7]; 1280 g/ha) was 90%.

With `CC(C)c1ccnc(Cl)c1C(=O)Nc1ncns1` [Example I-026, 2-chloro-4-isopropyl-N-(1,2,4-thiadiazol-5-yl)pyridine-3-carboxamide] the “herbicidal effect LOLRI” value (Lolium rigidum [8]; 1280 g/ha) was 100%, the “herbicidal effect MATIN” value (Matricaria inodora [1]; 1280 g/ha) was 100% and the “herbicidal effect STEME” value (Stellaria media [2]; 320 g/ha) was 90%. For the same compound, the “herbicidal effect STEME” value (Stellaria media [2]; 1280 g/ha) was 100%, the “herbicidal effect AMARE” value (Amaranthus retroflexus [3]) was 100% and the “herbicidal effect KCHSC” value (Kochia scoparia; 1280 g/ha) was 90%. The “herbicidal effect STEME” value (Stellaria media [5]; 1280 g/ha) was 100%, the “herbicidal effect VERPE” value (Veronica persica [6]; 1280 g/ha) was 90% and the “herbicidal effect AMARE” value (Amaranthus retroflexus [7]; 320 g/ha) was 90%. The “herbicidal effect AMARE” value (Amaranthus retroflexus [7]; 1280 g/ha) was 100%.

In the case of `COc1nccc(C(C)C)c1C(=O)Nc1ncns1` [Example I-027], the “herbicidal effect STEME” value (Stellaria media [2]; 1280 g/ha) is reported as 90%.
